Results published in PMC10799042 (Scientific Reports, 2024).

Columns and labels:
[1] = target: T1, Acetylcholinesterase (AChE) (Mus musculus, UniProt P21836); settings: brain THS of mice, scopolamine 1.5 mg/kg i.p.; donepezil and compounds 2 mg/kg p.o.; mean ± SD
T1 sequence (P21836 32-614): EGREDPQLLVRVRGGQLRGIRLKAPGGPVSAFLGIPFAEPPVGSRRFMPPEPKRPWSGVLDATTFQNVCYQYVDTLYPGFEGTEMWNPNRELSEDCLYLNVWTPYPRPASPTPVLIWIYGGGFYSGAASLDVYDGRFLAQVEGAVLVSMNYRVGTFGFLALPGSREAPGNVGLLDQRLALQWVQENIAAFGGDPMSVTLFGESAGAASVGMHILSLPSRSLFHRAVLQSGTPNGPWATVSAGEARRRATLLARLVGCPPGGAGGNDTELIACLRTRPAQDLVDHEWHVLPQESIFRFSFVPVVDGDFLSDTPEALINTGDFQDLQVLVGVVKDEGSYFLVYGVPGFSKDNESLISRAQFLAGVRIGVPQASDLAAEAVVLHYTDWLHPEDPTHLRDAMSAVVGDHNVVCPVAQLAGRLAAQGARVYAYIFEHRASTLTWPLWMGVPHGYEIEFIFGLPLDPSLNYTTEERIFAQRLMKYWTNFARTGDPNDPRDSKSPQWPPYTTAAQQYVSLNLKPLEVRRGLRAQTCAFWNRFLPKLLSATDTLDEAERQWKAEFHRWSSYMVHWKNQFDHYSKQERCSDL
Method: (§1) The animals were properly acclimated before being randomly placed into 12 groups (I-XII), with six animals in each group. […] Following the delivery of the dose to the mouse, the rodent's behaviour was assessed using the traditional Morris water maze (MWM) technique.
(§2) After five days of behavioral assessment, the mice's brains were removed and homogenized (blended) in chilled phosphate buffer (pH 7.4) at a concentration of 10% w/v (weight per volume). The homogenates were then centrifuged (spun at high speed) for 20 min at 4 °C to separate the supernatant (liquid) from the pellet (solid material). The supernatant was then collected to measure biological substances.
Employing Ellman et al., methodology, AChE levels were quantified in tissue homogenate supernatant (THS) to evaluate cholinergic abnormalities.

nitrite = assay: Nitrite assay (Greiss reagent) in brain homogenate; format: in vivo; settings: brain THS of mice, scopolamine 1.5 mg/kg i.p.; donepezil and compounds 2 mg/kg p.o.; mean ± SD
Method: as §1, §2
The amount of nitric oxide in THS was calculated using Greiss' reagent, a mixture of chemicals that reacts with nitric oxide to produce a colored product. The absorbance of the colored product was computed at 540 nm and the concentration of nitrite was determined using a standard curve of known nitrite concentrations.

[2] = tested on: Reduced glutathione (GSH); assay: Reduced glutathione (GSH) assay in brain homogenate; format: in vivo; settings: brain THS of mice, scopolamine 1.5 mg/kg i.p.; donepezil and compounds 2 mg/kg p.o.; mean ± SD
Method: as §1, §2
The method described by Jollow et al. was used to measure glutathione (GSH) levels. First, 1.0 mL of 4% sulfosalicylic acid was added to 1.0 mL of tissue homogenate to precipitate the GSH. The mixture was then incubated at 4 °C for 1 h and centrifuged at 1200 rpm for 10 min at 4 °C. The supernatant was collected and diluted to a final volume of 3.0 mL with phosphate buffer and Ellman's reagent. […]

Catalase = Catalase assay in brain homogenate; format: in vivo; settings: brain THS of mice, scopolamine 1.5 mg/kg i.p.; donepezil and compounds 2 mg/kg p.o.; mean ± SD
Method: as §1, §2
Employing the methodology of Luck et al., catalase activity was quantified. The sample contained H2O2 (1.0 mL, 0.019 M), phosphate buffer (1.95 mL, 0.05 M, pH 7.0), and THS (0.05 mL). The optical density was computed at a wavelength of 240 nm. The findings were shown as μM H2O2 decomposition/min/mg protein[13].

[3] = tested on: Superoxide dismutase (SOD); assay: Superoxide dismutase (SOD) assay in brain homogenate; format: in vivo; settings: brain THS of mice, scopolamine 1.5 mg/kg i.p.; donepezil and compounds 2 mg/kg p.o.; mean ± SD
Method: as §1, §2
The samples contained EDTA, sodium carbonate, and NBT, and the assay was performed using Kono's method. Each sample tube contained 2.0 mL of this mixture, as well as THS and hydroxylamine. The absorbance of the mixture was measured at 560 nm every 30 or 60 s for 2 min to track changes in absorbance.

[4] = tested on: scopolamine-induced memory impairment and learning disability in mice; assay: Morris water maze, scopolamine-induced memory impairment; format: in vivo, Swiss albino male mice; settings: for escape latency versus scopolamine-treated mice (in words): 2 mg/kg, day 1 to 5; for Escape latency, 2nd Day: day 2; for Escape latency, 3rd Day: day 3; for Escape latency, 4th Day: day 4; for Escape latency, 5th Day: day 5
Method: Swiss albino male mice weighing 25–30 g were purchased from LLRUVAS in Hisar, Haryana, India. […] The housing, care, and handling of the animals were done per CPCSEA requirements. The animals were exposed to the laboratory setting for seven days before the experiment.
as §1
Five days of continuous animal evaluations were conducted using the MWM model. […] The tank was placed in a dim laboratory, and using wires anchored at the pool's edge at an angle to one another, it was divided into four equal pieces (P1–P4). A stage in the targeted area (P4) of the pool with an upper face (6 × 6 cm^2) immersed in the water (1.0 cm below the surface). The location of the stage stayed the same throughout the evaluation. The animals were subjected to water pools throughout the evaluation by turning their heads towards the wall from any of the four segments, namely P1-P4, and being given 90 s to recognise the stage placed in a pool. If the animal couldn't get to the stage in 90 s, they were gently guided onto the stage under supervision. On the sixth day, one of the parameters used to determine if cognitive impairments have recovered was the time it took the mice to travel from the initial portion to locate the hidden stage in the intended part (escape latency). […]

malondialdehyde (MDA) = assay: Lipid peroxidation (LPO) assay, MDA in brain homogenate; format: in vivo; settings: brain THS of mice, scopolamine 1.5 mg/kg i.p.; donepezil and compounds 2 mg/kg p.o.; mean ± SD
Method: as §1, §2
The amount of malondialdehyde (MDA), a marker of lipid peroxidation (LPO), was measured using a method described by Wills[10]. Tris–HCl buffer and THS were mixed and incubated at 37 °C for 2 h with 10% trichloroacetic acid. After incubation, the mixture was centrifuged again (at 1000 rpm for 10 min). […] After cooling, 1.0 mL of double-distilled water was added, and the absorbance was measured at 532 nm.

[5] = mice, scopolamine 1.5 mg/kg i.p., donepezil and compounds 2 mg/kg p.o. with scopolamine, mean ± SD

| Substance | μM of AChE/min/mg protein [1] | Nitrite assay, nitrite conc. (nitrite) [μM/mg protein] | GSH assay, μmol of GSH/mg Protein [2] | Catalase assay, Catalase activity (Catalase) [min⁻¹] | SOD assay, SOD units/mg protein [3] [SOD units/mg protein] | escape latency versus scopolamine-treated mice (in words) [4] | Escape latency, 1st Day ([4]; mice, scopolamine 1.5 mg/kg i.p., donepezil and compounds 2 mg/kg p.o. with scopolamine, day 1, mean ± SD) [s] | Escape latency, 2nd Day [4, 5] [s] | Escape latency, 3rd Day [4, 5] [s] | Escape latency, 4th Day [4, 5] [s] | Escape latency, 5th Day [4, 5] [s] | LPO assay, MDA levels (malondialdehyde (MDA)) |
| --- | --- | --- | --- | --- | --- | --- | --- | --- | --- | --- | --- | --- |
| N-(1-(1-(3,4-dimethoxybenzyl)-2-oxopyrrolidin-3-yl)piperidin-4-yl)-2,4-difluorobenzenesulfonamide [Compound 10] | 0.01 ± 0.01 μM of AChE/min/mg protein | 12.82 ± 0.04 | 0.10 ± 0.005 μmol of GSH/mg Protein | 4.3 ± 0.01 | 3.07 ± 0.04 | significantly reduced escape latency | 80.33 ± 1.09 | 36 ± 1.09 | 25.33 ± 1.79 | 17 ± 1.67 | 3.66 ± 1.88 | 8.52 ± 0.05 nM/mg of tissue |
| N-(1-(1-(3,4-dimethoxybenzyl)-2-oxopyrrolidin-3-yl)piperidin-4-yl)-4-fluorobenzenesulfonamide [Compound 8] | 0.01 ± 0.01 μM of AChE/min/mg protein | 11.92 ± 0.05 | 0.11 ± 0.001 μmol of GSH/mg Protein | 5.23 ± 0.02 | 4.07 ± 0.03 | significantly reduced escape latency |  | 43 ± 2.68 | 22.66 ± 1.79 | 14.16 ± 2.56 | 5.66 ± 1.97 | 9.71 ± 0.03 nM/mg of tissue |
